Laboratory results published in patent US11254690B2, “PTEFb inhibiting macrocyclic compounds” (BAYER AKTIENGESELLSCHAFT, priority 2017, dated 2022).
Where two headings read alike, the source gives them in different places.

Tests used:
A2780 cells = assay: Proliferation assay, A2780; type: cell-based, human; details: 72-hour exposure, Cell Titre-Glo, read-out: Inhibition of A2780 cell proliferation IC50
Experimental: Cultivated tumour cells (HeLa, human cervical tumour cells, ATCC CCL-2; NCI-H460, human non-small cell lung carcinoma cells, ATCC HTB-177; DU 145, hormone-independent human prostate carcinoma cells, ATCC HTB-81; HeLa-MaTu-ADR, multidrug-resistant human cervical carcinoma cells, EPO-GmbH Berlin; Caco-2, human colorectal carcinoma cells, ATCC HTB-37; B16F10, mouse melanoma cells, ATCC CRL-6475) were plated at a density of 5,000 cells/well (DU145, HeLa-MaTu-ADR), 3,000 cells/well (NCI-H460, HeLa), 1,500 cells/well (Caco-2), or 1,000 cells/well (B16F10) in a 96-well multititer plate in 200 μL of their respective growth medium supplemented 10% fetal calf serum. After 24 hours, the cells of one plate (zero-point plate) were stained with crystal violet (see below), while the medium of the other plates was supplemented with the test substances in various concentrations (0 μM, as well as in the range of 0.0001-10 μM; the final concentration of the solvent dimethyl sulfoxide was adjusted to 0.1%) using a Hewlett-Packard HP D300 Digital Dispenser. The cells were incubated for 4 days in the presence of test substances. Cell proliferation was determined by staining the cells with crystal violet: the cells were fixed by adding 20 μl/measuring point of an 11% glutaric aldehyde solution for 15 minutes at room temperature. After three washing cycles of the fixed cells with water, the plates were dried at room temperature. The cells were stained by adding 100 μl/measuring point of a 0.1% crystal violet solution (pH 3.0). After three washing cycles of the stained cells with water, the plates were dried at room temperature. The dye was dissolved by adding 100 μl/measuring point of a 10% acetic acid solution. The extinction was determined by photometry at a wavelength of 595 nm. The change of cell number, in percent, was calculated by normalization of the measured values to the extinction values of the zero-point plate (=0%) and the extinction of the untreated ([…]) cells (=100%). The IC50 values (inhibitory concentration at 50% of maximal effect) were determined by means of a 4 parameter fit. A2780 human ovarian carcinoma cells (ECACC #93112519) and non-adherent MOLM-13 human acute myeloid leukemia cells (DSMZ ACC 554) were seeded at a density of 3,000 cell/well (A2780) or 5,000 cells/well (MOLM-13) in a 96-well multititer plate in 150 μL of growth medium supplemented 10% fetal calf serum. After 24 hours, cell viability of one plate (zero-point plate) was determined with the Cell Titre-Glo Luminescent Cell Viability Assay (Promega), while the medium of the other plates was supplemented with the test substances in various concentrations (0 μM, as well as in the range of 0.0001-10 μM; the final concentration of the solvent dimethyl sulfoxide was adjusted to 0.1%) using a Hewlett-Packard HP D300 Digital Dispenser. Cell viability was assessed after 72-hour exposure with the Cell Titre-Glo Luminescent Cell Viability Assay (Promega). IC50 values (inhibitory concentration at 50% of maximal effect) were determined by means of a 4 parameter fit on measurement data which were normalized to vehicle (DMSO) treated cells (=100%) and measurement readings taken immediately before compound exposure (=0%).

CDK2/CycE = target: T1, CDK2/CycE (Homo sapiens, UniProt P24941); assay: CDK2/CycE high ATP kinase assay (TR-FRET, 2 mM ATP); type: biochemical; details: Method 2b
T1 construct: GST; purchased ProQinase GmbH (Freiburg, Germany); host or cells: insect cells (Sf9)
Experimental: 2b. CDK2/CycE High ATP Kinase Assay
CDK2/CycE-inhibitory activity of compounds of the present invention at 2 mM adenosine-tri-phosphate (ATP) was quantified employing the CDK2/CycE TR-FRET (TR-FRET=Time Resolved Fluorescence Energy Transfer) assay as described in the following paragraphs.
Recombinant fusion proteins of GST and human CDK2 and of GST and human CycE, expressed in insect cells (Sf9) and purified by Glutathion-Sepharose affinity chromatography, were purchase from ProQinase GmbH (Freiburg, Germany). As substrate for the kinase reaction biotinylated peptide biotin-Ttds-YISPLKSPYKISEG (C-terminus in amid form) was used which can be purchased e.g. form the company JERINI peptide technologies (Berlin, Germany).
(§1) For the assay 50 nl of a 100 fold concentrated solution of the test compound in DMSO was pipetted into either a black low volume 384 well microtiter plate or a black 1536 well microtiter plate (both Greiner Bio-One, Frickenhausen, Germany), 2 μl of a solution of CDK2/CycE in aqueous assay buffer [50 mM Tris/HCl pH 8.0, 10 mM MgCl2, 1.0 mM dithiothreitol, 0.1 mM sodium ortho-vanadate, 0.01% (v/v) Nonidet-P40 (Sigma)] were added and the mixture was incubated for 15 min at 22° C. to allow pre-binding of the test compounds to the enzyme before the start of the kinase reaction. […] The concentration of CDK2/CycE was adjusted depending of the activity of the enzyme lot and was chosen appropriate to have the assay in the linear range, typical concentrations were about 10 ng/ml. The reaction was stopped by the addition of 3 μl of a solution of TR-FRET detection reagents (0.333 μM streptavidine-XL665 [Cisbio Bioassays, Codolet, France] and 1.67 nM anti-RB(pSer807/pSer811)-antibody from BD Pharmingen [#558389] and 2 nM LANCE EU-W1024 labeled anti-mouse IgG antibody [Perkin-Elmer, product no. AD0077, as an alternative a Terbium-cryptate-labeled anti-mouse IgG antibody from Cisbio Bioassays can be used]) in an aqueous EDTA-solution (167 mM EDTA, 0.2% (w/v) bovine serum albumin in 100 mM HEPES pH 7.5).
(§2) The resulting mixture was incubated 1 h at 22° C. to allow the formation of complex between the phosphorylated biotinylated peptide and the detection reagents. Subsequently the amount of phosphorylated substrate was evaluated by measurement of the resonance energy transfer from the Eu-chelate to the streptavidine-XL. Therefore, the fluorescence emissions at 620 nm and 665 nm after excitation at 350 nm was measured in a TR-FRET reader, e.g. a Pherastar (BMG Labtechnologies, Offenburg, Germany) or a Viewlux (Perkin-Elmer). The ratio of the emissions at 665 nm and at […] was taken as the measure for the amount of phosphorylated substrate. The data were normalised (enzyme reaction without inhibitor=0% inhibition, all other assay components but no enzyme=100% inhibition).

CDK9/CycT1 = target: T2, CDK9/CycT1 (Homo sapiens, UniProt P50750); assay: CDK9/CycT1 high ATP kinase assay (TR-FRET, 2 mM ATP); type: biochemical; details: for IC50: 2 mM ATP, Method 1b, lower limit for IC50s about 1-2 nM; for Selectivity high ATP CDK9 over high ATP CDK2: IC50 (high ATP CDK2)/IC50 (high ATP CDK9): ratio from Methods 1b and 2b, minimal values for IC50s near the assay limit
T2 construct: Recombinant full-length His-tagged human CDK9 and CycT1; His; purchased Life Technologies PV4131; host or cells: insect cells
T2 sequence (P50750 whole entry): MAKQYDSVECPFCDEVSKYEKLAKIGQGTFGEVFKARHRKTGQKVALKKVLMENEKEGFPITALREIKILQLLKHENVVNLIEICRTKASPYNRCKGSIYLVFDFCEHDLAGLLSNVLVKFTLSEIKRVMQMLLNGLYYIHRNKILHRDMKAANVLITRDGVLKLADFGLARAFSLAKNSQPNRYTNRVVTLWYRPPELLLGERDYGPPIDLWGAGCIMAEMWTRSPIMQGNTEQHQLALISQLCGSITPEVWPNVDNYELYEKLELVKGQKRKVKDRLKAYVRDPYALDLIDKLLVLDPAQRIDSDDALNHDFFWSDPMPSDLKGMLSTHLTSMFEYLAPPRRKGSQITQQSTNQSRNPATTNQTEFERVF
T2 sequence (O60563 whole entry partner): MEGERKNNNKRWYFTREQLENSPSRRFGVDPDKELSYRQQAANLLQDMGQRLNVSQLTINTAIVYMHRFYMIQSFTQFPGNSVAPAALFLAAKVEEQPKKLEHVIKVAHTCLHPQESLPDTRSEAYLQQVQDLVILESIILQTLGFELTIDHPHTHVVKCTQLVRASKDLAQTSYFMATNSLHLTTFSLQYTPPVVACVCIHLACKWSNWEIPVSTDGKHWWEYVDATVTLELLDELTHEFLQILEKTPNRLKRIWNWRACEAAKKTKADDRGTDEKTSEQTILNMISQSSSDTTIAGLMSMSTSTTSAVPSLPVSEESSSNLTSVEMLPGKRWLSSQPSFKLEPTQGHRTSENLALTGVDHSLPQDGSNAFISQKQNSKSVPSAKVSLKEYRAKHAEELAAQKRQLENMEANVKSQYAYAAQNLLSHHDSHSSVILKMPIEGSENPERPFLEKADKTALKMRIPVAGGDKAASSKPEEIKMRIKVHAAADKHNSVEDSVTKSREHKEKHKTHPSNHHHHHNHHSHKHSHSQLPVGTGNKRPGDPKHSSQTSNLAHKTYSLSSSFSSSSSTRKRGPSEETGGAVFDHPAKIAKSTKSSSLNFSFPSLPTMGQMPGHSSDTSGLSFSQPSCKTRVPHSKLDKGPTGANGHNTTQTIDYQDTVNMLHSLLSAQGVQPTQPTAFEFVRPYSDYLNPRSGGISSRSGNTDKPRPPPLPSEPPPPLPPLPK
Experimental: 1b. CDK9/CycT1 High ATP Kinase Assay
CDK9/CycT1-inhibitory activity of compounds of the present invention at a high ATP concentration after preincubation of enzyme and test compounds was quantified employing the CDK9/CycT1 TR-FRET assay as described in the following paragraphs.
Recombinant full-length His-tagged human CDK9 and CycT1, expressed in insect cells and purified by Ni-NTA affinity chromatography, were purchased from Life Technologies (Cat. No PV4131). As substrate for the kinase reaction biotinylated peptide biotin-Ttds-YISPLKSPYKISEG (C-terminus in amide form) was used which can be purchased e.g. form the company JERINI peptide technologies (Berlin, Germany).
as §1, with “CDK9/CycT1” for “CDK2/CycE”, “in the range of 0.5 μg/ml.” for “about 10 ng/ml.”, “(0.33” for “(0.333”, “AD0077])” for “AD0077, as an alternative a Terbium-cryptate-labeled anti-mouse IgG antibody from Cisbio Bioassays can be used])”
as §2

[1] = in vivo; cited from earlier work

CC1CCCCCOc2cc(ccc2F)-c2cc(ncc2F)Nc2cc(CS(C)(=O)=O)cc(n2)O1 (single isomer, unassigned) [Example 31, 3,22-difluoro-14-methyl-10-[(methylsulfonyl)methyl]-13,20-dioxa-5,7,26-triazatetracyclo[19.3.1.1^2,6.1^8,12]hexacosa-1 (25),2(27),3,5,8(26),9,11,21,23-nonaene]
IC50 (A2780 cells; Homo sapiens, A2780, 72 h): 121 nM | IC50 (CDK2/CycE): > 20000 nM | IC50 (CDK9/CycT1): 16 nM | Selectivity high ATP CDK9 over high ATP CDK2: IC50 (high ATP CDK2)/IC50 (high ATP CDK9) (CDK9/CycT1): 1250

CC1CCCCCOc2cc(ccc2F)-c2cc(ncc2F)Nc2cc(CS(C)(=O)=O)cc(n2)O1 (single isomer, unassigned) [Example 32, 3,22-difluoro-14-methyl-10-[(methylsulfonyl)methyl]-13,20-dioxa-5,7,26-triazatetracyclo[19.3.1.1^2,6.1^8,12]hexacosa-1 (25),2(27),3,5,8(26),9,11,21,23-nonaene]
IC50 (A2780 cells): 146 nM | IC50 (CDK2/CycE): 4980 nM | IC50 (CDK9/CycT1): 18 nM | Selectivity high ATP CDK9 over high ATP CDK2: IC50 (high ATP CDK2)/IC50 (high ATP CDK9) (CDK9/CycT1): 277

C[N+]1(C)[C@@H]2C[C@@H](OC(=O)C(O)(c3cccs3)c3cccs3)C[C@H]1[C@@H]1O[C@@H]12 [tiotropium]
protection against bronchospasms [1]: more than 6 hours
